The record followed here is the Deep4Chem optical property database.

This series can be described thus: solvent given as SMILES.
Setting [1] is: in c1cc(-c2cccc(-n3c4ccccc4c4ccccc43)c2)cc(-n2c3ccccc3c3ccccc32)c1.

SMILES strings stand for the structures.

For the setting “in ClCCl”, `CC(C)c1cccc(C(C)C)c1N1C(=O)c2cccc3c(Oc4ccc(Cl)cc4)ccc(c23)C1=O` yielded a fluorescence lifetime of 3.95 ns.

`COc1ccc(/C=C/C2=[O+][B-](F)(F)OC(/C=C/c3ccc(OC)c4ccccc34)=C2c2ccccc2)c2ccccc12`: the fluorescence lifetime reads like this: (in CC#N) 0.63 ns; (in CC(C)=O) 1.02 ns; (in CCOC(C)=O) 1.28 ns; (in CCOCC) 1.12 ns; (in ClC(Cl)(Cl)Cl) 0.94 ns; (in ClCCl) 1.91 ns.

Where the note is “in CO”, `CCOC(=O)CCCCCn1c2ccccc2c(=O)c2cc3c(cc21)c(=O)c1ccccc1n3CCCCCC(=O)OCC` showed a fluorescence lifetime of 21.6 ns.

The molecule `COc1cc(C#Cc2ccccc2)c(C#Cc2ccccc2)cc1OC` came in with a fluorescence lifetime (in CC#N) of 2.1 ns.

Consider `COc1cc(OC)c(C2=C3C(C)=CC(C)=[N+]3[B-](F)(F)n3c(C)cc(C)c32)c(OC)c1`, for which the fluorescence lifetime (in C1CCOC1) was 5.7 ns and the fluorescence lifetime (in CCCCCC) stood at 6.35 ns.

For the molecule `C(#Cc1ccccc1)C(C#Cc1ccccc1)=Cc1cccc(C=C(C#Cc2ccccc2)C#Cc2ccccc2)c1`, the fluorescence lifetime (in ClC(Cl)Cl) was found to be 0.3 ns.

`Cc1ccc2nc3c(=O)n(C)c(=O)nc-3n(C)c2c1` showed a fluorescence lifetime (in CC#N) of 4.9 ns.

As to `CC(C)(C)c1ccc2ccc3c(C(C)(C)C)ccc4ccc1c2c43`, the fluorescence lifetime is, setting by setting: (in CCCCCC) 60.9 ns; (in CO) 78.6 ns; (in ClCCl) 43.1 ns.

With `CCn1c2ccccc2c2cc(-c3cc(-c4ccc5c(c4)c4ccccc4n5CC)ncn3)ccc21`, the fluorescence lifetime (in C1CCOC1) was 1.86 ns.

For `CCCCCCn1c2cc(/C=C(\C#N)c3cccs3)ccc2c2ccc(/C=C(\C#N)c3cccs3)cc21`, the fluorescence lifetime (in ClC(Cl)Cl) was found to be 0.56 ns.

As to `C[Si](C)(C)C#Cc1cccc2ccccc12`, the fluorescence lifetime (in C1CCCCC1) worked out at 9 ns.

As for `CCCN1/C(=C\c2c(-c3ccc(N(C)C)cc3)c(=O)c2=O)C=Cc2ccccc21`, the fluorescence lifetime by setting is: (in C1CCCCC1) 1.01 ns; (in Cc1ccccc1) 2.46 ns; (in ClCCl) 0.09 ns.

For the molecule `CCOC(=O)CN1C(=O)C2=C(c3ccccc3)N(CC(=O)OCC)C(=O)C2=C1c1ccccc1`, the fluorescence lifetime turned out to be 6.7 ns (in CC#N), 7.34 ns (in CS(C)=O) and 5.93 ns (in Cc1ccccc1).

Regarding `COCCOCCOCCOCC(COCCOCCOCCOC)Oc1cc(/C=C/c2ccc(C=C(C#N)C#N)cc2)c(OC(COCCOCCOCCOC)COCCOCCOCCOC)cc1/C=C/c1ccc(C=C(C#N)C#N)cc1`, the fluorescence lifetime (in ClCCl) stood at 1.7 ns.

As for `COc1ccc(-c2c3ccccc3c(-c3ccc(OC)cc3)c3ccccc23)cc1`, the fluorescence lifetime (in ClCCl) is 4.4 ns.

In turn, `C(=C\c1ccc(-c2ccncc2)cc1)/c1ccc(-c2ccncc2)cc1` showed a fluorescence lifetime (in ClCCl) of 0.85 ns.

As to `CC(C)c1cc(C(C)C)c(B2c3cc(-n4c5ccccc5c5ccccc54)ccc3N(c3ccccc3)c3ccc(-n4c5ccccc5c5ccccc54)cc32)c(C(C)C)c1`, the fluorescence lifetime under setting [1] was 15 ns.

`CC(C)c1cccc(C(C)C)c1N1C(=O)c2cccc3c(Oc4ccc(C(C)(C)C)cc4)ccc(c23)C1=O` registered a fluorescence lifetime (in ClCCl) of 1.12 ns.

The molecule `CCN(CC)c1ccc2cc(-c3ccc(-c4ccc(-c5cc6ccc(N(CC)CC)cc6oc5=O)cc4)cc3)c(=O)oc2c1` showed a fluorescence lifetime (in ClCCl) of 10.1 ns.

In the case of `CCN(CC)c1ccc2c(-c3ccc(S(=O)(=O)[O-])cc3S(=O)(=O)[O-])c3ccc(=[N+](CC)CC)cc-3oc2c1`, the fluorescence lifetime runs as follows: (in CC#N) 2.46 ns; (in CCO) 2.96 ns; (in CN(C)C=O) 2.84 ns; (in O) 1.49 ns.

With `CC1=CC(C)=[N+]2C1=C(C)c1cccn1[B-]2(F)F`, the fluorescence lifetime was 6.1 ns (in CCCCCC), 6.31 ns (in CO) and 5.93 ns (in ClCCl).

For the molecule `C(=C\c1cc2ccccc2c2ccccc12)/c1cc2ccccc2c2ccccc12`, the fluorescence lifetime (in C1CCOC1) stood at 1.72 ns.

On to `c1ccc2c(c1)-c1ccccc1C21c2ccccc2-c2c1c1c3ccccc3ccc1c1ccccc21`, for which, under “in Cc1ccccc1”, the fluorescence lifetime turned out to be 3.14 ns.

Regarding `CC(C)[Si](C#Cc1ccc(C#C[Si](C(C)C)(C(C)C)C(C)C)c2nc3cc4c(cc3nc12)[C@H]1c2ccccc2[C@@H]4c2ccccc21)(C(C)C)C(C)C`, the fluorescence lifetime is, setting by setting: (in CCCCCC) 3.1 ns; (in ClCCl) 3.4 ns.

In the case of `CN(C)c1ccc2nc3c(cc2c1)c(-c1ccccc1)nn3-c1ccccc1`, the fluorescence lifetime (in C1CCCCC1) amounted to 16.1 ns; the fluorescence lifetime (in C1CCOC1) worked out at 21 ns; the fluorescence lifetime (in CC#N) came to 24.5 ns; the fluorescence lifetime (in CC(C)=O) worked out at 23.4 ns; the fluorescence lifetime (in CCCCCl) came to 20.1 ns; the fluorescence lifetime (in CCCCOCCCC) was 18.4 ns. Moreover, the fluorescence lifetime (in CN(C)C=O) turned out to be 22.3 ns.

As for `COc1cc(OC)cc(C2=[O+][B-](F)(F)OC(c3ccccc3)=C2)c1`, the fluorescence lifetime (in ClCCl) amounted to 6.87 ns.

Take `N#C/C(=C\c1ccc(C#N)cc1)c1nc(-c2ccccc2)cs1`: for the setting “in CC#N”, the fluorescence lifetime came out at 3.4 ns.

`CC1(C)c2ccccc2N(c2ccc(-c3cc(C#N)c(C#N)cc3-c3ccc(N4c5ccccc5C(C)(C)c5ccccc54)cc3)cc2)c2ccccc21` showed a fluorescence lifetime under setting [1] of 35 ns.

Consider `O=C(c1ccc(N2c3ccccc3Sc3ccccc32)cc1)c1ccc2sc3ccccc3c2c1`, for which the fluorescence lifetime (in c1ccc2c(c1)c1ccccc1n2-c1ccc(-c2ccc(-n3c4ccccc4c4ccccc43)cc2)cc1) came to 37.4 ns.

For the molecule `COc1cc(OC)c2c(c1)C(=O)c1ccccc1-2`, the fluorescence lifetime is, setting by setting: (in C1CCCCC1) 5.8 ns; (in CC#N) 0.9 ns.

For the molecule `CC1(C)C(=O)C=Cc2ccc(N)cc21`, under “in O”, the fluorescence lifetime is 3.49 ns.

For the setting “in C1CCOC1”, `C(=C\c1cc2ccccc2c2ccccc12)/c1c2ccccc2cc2ccccc12` came in with a fluorescence lifetime of 4.63 ns.

Molecule `CCC12C(=C3C(=C4c5ccc(-c6ccc(C(C)=O)s6)cc5S(=O)(=O)C41CC)C(F)(F)C(F)(F)C3(F)F)c1ccc(-c3ccc(C(C)=O)s3)cc1S2(=O)=O` (stereo not given) registered a fluorescence lifetime (in C1COCCO1) of 1.9 ns.

On to `Cc1cc(-c2nc(-c3ccccc3)nc(-c3ccccc3)n2)ccc1-n1c2ccccc2c2cc3c(cc21)C1c2ccccc2C3c2ccccc21`, for which, under “in O=P(c1ccccc1)(c1ccccc1)c1ccccc1Oc1ccccc1P(=O)(c1ccccc1)c1ccccc1”, the fluorescence lifetime is 10.6 ns.

With `c1ccc(-c2oc(-c3ccccc3)c3ccccc23)cc1`, the fluorescence lifetime reads like this: (in CCO) 4.72 ns; (in CN(C)C=O) 5.08 ns; (in CS(C)=O) 5.3 ns.

`C1=Cc2ccccc2Cc2ccccc21`: the fluorescence lifetime (in CC#N) was found to be 3.72 ns.

With `O=C(O)c1ccc2ccc3cccc4ccc1c2c34`, the fluorescence lifetime (in C1CCOC1) came to 10.6 ns; the fluorescence lifetime (in CC#N) amounted to 9 ns; the fluorescence lifetime (in CCCCCC) came to 8.68 ns; the fluorescence lifetime (in CCO) was found to be 7.78 ns; the fluorescence lifetime (in CN(C)C=O) came out at 8.43 ns; the fluorescence lifetime (in CO) stood at 15.5 ns. The fluorescence lifetime (in Cc1ccccc1) turned out to be 7.14 ns and the fluorescence lifetime (in ClCCl) was determined as 5.12 ns.

`O=C1c2ccccc2C2=Nc3cccc4cccc(c34)N12` came in with a fluorescence lifetime (in ClCCl) of 0.86 ns.

In the case of `CN(C)c1ccc(C2=Nc3scc(-c4ccc([N+](=O)[O-])cc4)[n+]3[B-](F)(F)O2)cc1`, the fluorescence lifetime (in C1CCOC1) came to 1.64 ns.

For the molecule `CC[n+]1nc2cc3c(cc2c2cc(C)ccc21)N(C)CCC3`, where the note is “in O”, the fluorescence lifetime worked out at 4.3 ns.

As for `Nc1ccc2c(-c3ccccc3C(=O)[O-])c3ccc(=[NH2+])cc-3oc2c1`, the fluorescence lifetime runs as follows: (in CC#N) 4.03 ns; (in CCO) 4 ns; (in CN(C)C=O) 3.68 ns; (in O) 4.28 ns.

Molecule `CCN(CC)c1ccc2c(c1)oc(=O)c1cc3c(-c4ccccc4)nn(-c4ccccc4)c3nc12` had a fluorescence lifetime (in ClCCl) of 17.9 ns.

For `COC(=O)[C@]12N=N[C@](C(=O)OC)(C3C4C5C4C5C31)C1C3C4C3C4C12` (stereo not given in full), where the note is “in CC#N”, the fluorescence lifetime came to 166 ns.
